Measured values taken from patent publication US20250325676A1, “CAMPTOTHECIN PRODRUG AND PHARMACEUTICAL COMPOSITION THEREOF” (TIANJIN HEMAY ONCOLOGY PHARMACEUTICAL CO., LTD, priority 2022, published 2025).
Like-named read-outs stand apart in the source and are kept apart here.

Columns and labels:
HCT116 = test: In vitro inhibition of human tumor cells, HCT116, MTT method; assay type: cell-based
SW620 = test: In vitro inhibition of human tumor cells, SW620, SRB method; assay type: cell-based
Description: (§1) The cells were allowed to adhere overnight.
(§2) Trichloroacetic acid was removed. […] Excess SRB was removed.
(§3) The DMSO concentration was 0.1%.

LoVo = test: In vitro inhibition of human tumor cells, LoVo, SRB method; assay type: cell-based
Description: as §1, §2, §3

NCI-N87 = test: In vitro inhibition of human tumor cells, NCI-N87, MTT method; assay type: cell-based
BxPC-3 = test: In vitro inhibition of human tumor cells, BxPC-3, MTT method; assay type: cell-based
NCI-H460 = test: In vitro inhibition of human tumor cells, NCI-H460, MTT method; assay type: cell-based
Fadu = test: In vitro inhibition of human tumor cells, Fadu, MTT method; assay type: cell-based
[1] = test system: human colon cancer HCT116; test: Growth of human colon cancer HCT116 in allogeneic transplantation model; assay type: in vivo, nude mice
Procedure: (§4) When the tumor volume of the allogeneic transplantation was about 100 to 300 mm^3 and remained stable, the experimental animals were randomly divided into groups according to the size of the tumor volume (day 0) by using a remainder method. The tumor volume was measured 2 to 3 times a week. At the end of the dosage period, the experimental animals were sacrificed. The subcutaneous tumors were peeled and weighed. The anti-tumor activity of the drug against the model was evaluated based on tumor volume and tumor weight-related data.
(§5) The calculation formula of the tumor volume was: Volume=0.5×long diameter×short diameter×short diameter.
(§6) V0 was the resulting tumor volume measured at the time of dosing in groups (i.e., d0) and Vt was the tumor volume at each measurement.
(§7) TRTV was the average RTV of the subject, and CRTV was the average RTV of the model control group.
(§8) Wn: average body weight of each group of experimental animals on day n, and W0: average body weight of each group of experimental animals on day 0.

[2] = test system: human pancreatic cancer BxPC-3; test: Growth of human pancreatic cancer BxPC-3 in allogeneic transplantation model; assay type: in vivo, nude mice; details: 25 mg/kg i.v. qw × 2, BxPC-3 model
Procedure: as §4, §5, §6
(§9) T was the subject and C was the model control.
as §7, §8
(§10) In the large tumor efficacy test after the second grouping of the G5 group, since the number of samples in each group of G6.1 and G6.4 was less than three, the relevant data of the large tumor efficacy test were statistically analyzed among groups using the T-Test method.

[3] = test system: human gastric cancer NCI-N87; test: Growth of human gastric cancer NCI-N87 in allogeneic transplantation model; assay type: in vivo, nude mice
Procedure: The tumor volume was measured 2 to 3 times per week. […] The subcutaneous tumors were peeled and weighed.
The calculation formula of the tumor volume: Volume=0.5×long diameter×short diameter×short diameter.

[4] = test system: human colon cancer HCT116; details: 30 mg/kg i.v. qw × 2
Description: When the tumor volume was more than 600 mm^3 and stable growth was maintained, the experimental animals were randomly divided by the remainder method and administered according to the size of the tumor volume. […] The subcutaneous tumors were stripped and weighed.
T was the subject and C is the model control.
Tumor volume growth was observed on a regular basis after completion of dosing.

human colon cancer LoVo = details: 30 mg/kg i.v. qw × 2, LoVo model
Procedure: An allogeneic transplantation model of human colon cancer LoVo was established in nude mice subcutaneously using a tumor block inoculation method. When the tumor volume of the allogeneic transplantation was about 100 to 300 mm^3 and kept stable, the experimental animals were randomly divided into groups according to the tumor volume (day 0) by using a remainder method. The tumor volume was measured 2 to 3 times a week. At the end of the dosage period, the experimental animals were sacrificed. The subcutaneous tumors were peeled and weighed. The anti-tumor activity of the drug against the model was evaluated based on tumor volume and tumor weight-related data.
as §5
V0 was the resulting tumor volume measured at the time of dosing in groups (i.e., d0) and Vt is the tumor volume at each measurement.
as §9
TRTV was the average RTV of the subject and CRTV was the average RTV of the model control group.
as §8

human colon cancer SW620 = details: 30 mg/kg i.v. qw × 2, SW620 model
Procedure: An allogeneic transplantation model of human colon cancer SW620 was established in nude mice subcutaneously using a tumor block inoculation method. When the tumor volume of the allogeneic transplantation was about 100 to 300 mm^3 and remained stable, the experimental animals were randomly divided into groups according to the size of the tumor volume (day 0) by using a remainder method. The tumor volume was measured 2 to 3 times a week. At the end of the dosage period, the experimental animals were sacrificed. The subcutaneous tumors were peeled and weighed. The anti-tumor activity of the drug against the model was evaluated based on tumor volume and tumor weight-related data.
as §5, §6
TRTV was the average value of RTV of the subject, and CRTV was the average RTV of the model control group.
as §8

[5] = test system: human pancreatic cancer BxPC-3; details: 30 mg/kg i.v. qw × 2
Procedure: as §4, §5, §6, §9, §7, §8, §10

[6] = test system: human small cell lung cancer NCI-H446; details: 20 mg/kg i.v. qw × 2, NCI-H446 model
Procedure: An allogeneic transplantation model of human small cell lung cancer NCI-H446 was established in nude mice subcutaneously using a tumor block inoculation method. When the tumor volume of the allogeneic transplantation was about 100 to 300 mm^3 and remained stable, the experimental animals were randomly divided into groups according to the size of the tumor volume (day 0, i.e., d0) using a remainder method. The tumor volume was measured 2 to 3 times a week. At the end of the dosage period, the experimental animals were sacrificed. The subcutaneous tumors were peeled and weighed. The anti-tumor activity of the drug against the model was evaluated based on tumor volume and tumor weight-related data.
as §5, §6, §9, §7, §8

A375 = test: In vitro inhibition of human tumor cells, A375, SRB method
Procedure: (§11) 1.1.2 Cell culture method: Cells were cultured in complete medium, 37° C., 5% CO2, saturated humidity to log growth phase (adherent cells generally attended to complete fusion), and cells were collected for subsequent experiments (adherent cells were first digested with trypsin/ethylene diamine tetraacetic acid (EDTA) to remove adherent).
(§12) 1.1.3 96-well cell culture plates (hereinafter referred to as 96-well plates) were inoculated with a certain number of cells (see Table 1 for details). The cells were allowed to adhere overnight. […] Finally, the total amount of cell protein in the assay wells was determined by the SRB method, or the cell viability was determined by the MTT method:
(§13) The culture medium was aspirated from the wells and the cells were fixed for 1 hour or more by adding 10% trichloroacetic acid. Trichloroacetic acid was removed. The resultant was washed with H2O and stained with 0.4% SRB for 15 to 30 minutes. Excess SRB was removed. The resultant was washed with 1% acetic acid. The protein-bound SRB was dissolved by adding 10 mM of 100 μl Tris (trishydroxymethylaminomethane). Tests were carried out at the wavelength of 570 nm.
(§14) 1.1.4 dilution and addition of β-glucuronidase: 1 to 2 mg of β-glucuronidase was weighed and dissolved in PBS to give a 2 mg/ml of stock solution. […] 80 μl of enzyme working solution was added to the enzyme-containing assay wells. The amount of β-glucuronidase was 1 μg/wells. No enzyme-containing assay wells were added to the 80 μl of complete medium.
(§15) The assay wells were charged with 20 μl of 10× compound working solution. The final volume was 200 μl per well. The DMSO concentration was 0.1%.
(§16) 1.1.6 Compound inhibition activity calculation: The test included a compound test group, a compound-free positive solvent control group (PC) and a compound-free negative solvent control group (NC). […] The average inhibition rate and the standard deviation (SD) were obtained from the repeated test wells. The average inhibition rate was plotted on the basis of the compound concentration as an abscissa and distributed in the form of logarithms. The curve was fitted to the Logistic 4 parameter equation. […] The test was generally repeated to obtain 3 valid results.

22RV1 = test: In vitro inhibition of human tumor cells, 22RV1, SRB method
Procedure: as §11, §12, §13, §14, §15, §16

BEL-7404 = test: In vitro inhibition of human tumor cells, BEL-7404, SRB method
Procedure: as §11, §12, §13, §14, §15, §16

MDA-MB-468 = test: In vitro inhibition of human tumor cells, MDA-MB-468, SRB method
Procedure: as §11, §12, §13, §14, §15, §16

[7] = No βGU (direct effects of compound on cells)
[8] = HCT116 large tumor after irinotecan
[9] = BxPC-3 large tumors after irinotecan

CCc1c2c(nc3ccc(OCc4ccc(O[C@@H]5O[C@H](C(=O)[O-])[C@@H](O)[C@H](O)[C@H]5O)cc4OCc4cn(CCCCCC(=O)Nc5ccc(-c6ccc(/N=N/c7ccc8c(S(=O)(=O)[O-])cc(S(=O)(=O)[O-])c(N)c8c7O)c(C)c6)cc5C)nn4)cc13)-c1cc3c(c(=O)n1C2)COC(=O)[C@]3(O)CC.[Na+].[Na+].[Na+] [Example 7, (2S,3S,4S,5R,6S)-6-(3-((1-(6-((4′-((E)-(8-amino-1-hydroxy-5,7-disulfonicnaphthalen-2-yl)diazenyl)-3,3′-dimethyl-[1,1′-biphenyl]-4-yl)amino)-6-oxohexyl)-1H-1,2,3-triazol-4-yl)methoxy)-4-((((S)-4,11-diethyl-4-hydroxy-3,14-dioxy-3,4,12,14-tetrahydro-1H-pyrano[3′,4′:6,7]indolazino[1,2-b]quinolin-9-yl)oxy)methyl)phenoxy)-3,4,5-trihydroxytetrahydro-2H-pyran-2-carboxylate trisodium]
IC50 (HCT116; Adding βGU (β-glucuronidase)): 0.0039 µM
IC50 (HCT116; [7]): 0.147 µM
IC50 (SW620; Adding βGU): 0.0069 µM
IC50 (SW620; No βGU): 0.306 µM
IC50 (LoVo; Adding βGU): 0.019 µM
IC50 (LoVo; No βGU): 0.253 µM
IC50 (NCI-N87; Adding βGU): 0.024 µM
IC50 (NCI-N87; No βGU): 1.14 µM
IC50 (BxPC-3; Adding βGU): 0.027 µM
IC50 (BxPC-3; No βGU): 1.11 µM
IC50 (NCI-H460; Adding βGU): 0.014 µM
IC50 (NCI-H460; No βGU): 0.219 µM
IC50 (Fadu; Adding βGU): 0.0085 µM
IC50 (Fadu; No βGU): 0.242 µM
T/C (%) ([1]; 10 mg/kg i.v. qw × 2): 13.3%
Tumor inhibition rate (%) ([1]; 10 mg/kg i.v. qw × 2): 90.0%
Final body weight change (%) ([1]; 10 mg/kg i.v. qw × 2, nude mouse): −12.8%
Relative volume RTV (X ± S.D.) [2]: 0.23 ± 0.08
T/C (%) [2]: 4.9%
Tumor inhibition rate (%) [2]: 96.7%
Tumor weight (g, X ± S.D.) [2]: 0.055 ± 0.037 g
Final body weight change (%) ([2]; nude mouse): 2.9%
Relative volume RTV (X ± S.D.) ([3]; 20 mg/kg i.v. qw × 2): 0.69 ± 0.15
T/C (%) ([3]; 20 mg/kg i.v. qw × 2): 13.6%
Tumor inhibition rate (%) ([3]; 20 mg/kg i.v. qw × 2): 94.2%
Tumor weight (g, X ± S.D.) ([3]; 20 mg/kg i.v. qw × 2): 0.069 ± 0.009 g
Final body weight change (%) ([3]; 20 mg/kg i.v. qw × 2, nude mouse): 13.6%
Relative volume RTV (X ± S.D.) [4, 8]: 1.10 ± 0.16
T/C (%) [4, 8]: 29.6%
Tumor inhibition rate (%) [4, 8]: 73.6%
Tumor weight (g, X ± S.D.) [4, 8]: 0.720 ± 0.492 g
Final body weight change (%) ([4]; HCT116 tumors more than 600 mm^3 after irinotecan 100 mg/kg qw×2): −10.7%
T/C (%) (human colon cancer LoVo): 12.3%
Tumor inhibition rate (%) (human colon cancer LoVo): 91.1%
Final body weight change (%) (human colon cancer LoVo; nude mouse): 0.0%
T/C (%) (human colon cancer SW620): 0.6%
Tumor inhibition rate (%) (human colon cancer SW620): 99.7%
Final body weight change (%) (human colon cancer SW620; nude mouse): −4.6%
Relative volume RTV (X ± S.D.) [5, 9]: 0.28 ± 0.03
T/C (%) [5, 9]: 7.7%
Tumor inhibition rate (%) [5, 9]: 94.2%
Tumor weight (g, X ± S.D.) [5, 9]: 0.174 ± 0.164 g
Final body weight change (%) ([5]; BxPC-3 tumors more than 600 mm^3 after irinotecan 100 mg/kg i.p. qw × 2): −0.3%
Relative volume RTV (X ± S.D.) [6]: 0.11 ± 0.02
T/C (%) [6]: 1.5%
Tumor inhibition rate (%) [6]: 98.9%
Tumor weight (g, X ± S.D.) [6]: 0.011 ± 0.005 g
Final body weight change (%) ([6]; nude mouse): 4.1%
IC50 (A375; Adding βGU): 0.01 µM
IC50 (A375; No βGU): 0.6 µM
IC50 (22RV1; Adding βGU): 0.0052 µM
IC50 (22RV1; No βGU): 0.147 µM
IC50 (BEL-7404; Adding βGU): 0.033 µM
IC50 (BEL-7404; No βGU): 0.514 µM
IC50 (MDA-MB-468; Adding βGU): 0.0068 µM
IC50 (MDA-MB-468; No βGU): 0.07 µM

(2S,3S,4S,5R,6S)-6-(3-((1-(6-((4′-((E)-(8-amino-1-hydroxy-5,7-disulfonicnaphthalen-2-yl)diazenyl)-[1,1′-biphenyl]-4-yl)amino)-6-oxohexyl)-1H-1,2,3-triazol-4-yl)methoxy)-4-((((S)-4,11-diethyl-4-hydroxy-3,14-dioxo-3,4,12,14-tetrahydro-1H-pyrano[3′,4′:6,7]indolazino[1,2-b]quinolin-9-yl)oxy)methyl)phenoxy)-3,4,5-trihydroxytetrahydro-2H-pyran-2-carboxylate trisodium [Example 78]
IC50 (HCT116; Adding βGU (β-glucuronidase)): 0.0024 µM
IC50 (HCT116; [7]): 0.042 µM
IC50 (SW620; Adding βGU): 0.0073 µM
IC50 (SW620; No βGU): 0.329 µM
IC50 (LoVo; Adding βGU): 0.011 µM
IC50 (LoVo; No βGU): 0.301 µM
IC50 (NCI-N87; Adding βGU): 0.026 µM
IC50 (NCI-N87; No βGU): 0.17 µM
IC50 (BxPC-3; Adding βGU): 0.013 µM
IC50 (BxPC-3; No βGU): 0.61 µM
IC50 (NCI-H460; Adding βGU): 0.0096 µM
IC50 (NCI-H460; No βGU): 0.53 µM
IC50 (Fadu; Adding βGU): 0.0069 µM
IC50 (Fadu; No βGU): 0.346 µM
T/C (%) (human colon cancer LoVo): 15.8%
Tumor inhibition rate (%) (human colon cancer LoVo): 88.2%
T/C (%) (human colon cancer SW620): 0.6%
Tumor inhibition rate (%) (human colon cancer SW620): 99.4%
IC50 (A375; Adding βGU): 0.022 µM
IC50 (A375; No βGU): 0.984 µM
IC50 (22RV1; Adding βGU): 0.0076 µM
IC50 (22RV1; No βGU): 0.267 µM
IC50 (BEL-7404; Adding βGU): 0.035 µM
IC50 (BEL-7404; No βGU): 0.458 µM
IC50 (MDA-MB-468; Adding βGU): 0.0033 µM
IC50 (MDA-MB-468; No βGU): 0.028 µM
